According to patent US9738902B2, “Modified PYR/PYL receptors activated by ligands” (priority 2013, dated 2017):

Legend:
[1] = target: T1, PYR1 K59R V81I F108A S122G A160V (Arabidopsis thaliana, UniProt O49686, A160V/F108A/K59R/S122G/V81I); assay: Y2H Combinatorial Mutagenesis II (HAB1, X-gal); type: cell-based
T1 construct: expressed in transfected cells; host or cells: S. cerevisiae Y190 pACT-HAB1
Source text: (§1) Both of the above optimization experiments led to the identification of the following mutations that, when introduced one at a time, enhance the mandipropamid sensitivity of PYR1^K59R,F108A,S122G: Y58H, V81C, V81I, V81T, V83L, L87A, F159L, F159M, F159V, A160V and V164I. Given that these each enhance sensitivity on their own, we tested if combinations of these mutations might generate more sensitive receptors. Mutagenic primers for each of the mutations were designed and used simultaneously with the QuickChange Lightning Multi Site-Directed Mutagenesis kit (Agilent, USA) with PYR1^K59R,F108A,S122G template DNA. Individual clones were sequenced to identify bona fide combination mutants, which were transformed into the Y190 pACT-HAB1 yeast strain and assayed for mandipropamid sensitivity. These efforts led to the identification of several improved receptors (“Combinatorial Mutagenesis Screen II”, Table 1), including PYR1^Y58H,K59R,V81I,F108A,S122G,F159L, a hextuple mutant that we have named PYR1^MANDI. Yeast reporter strains expressing this mutant are responsive to mandipropamid concentrations as low as 2 nM (Table 1). Thus, the 5-step mutagenesis protocol we followed led to the construction of a mandipropamid responsive receptor with nanomolar sensitivity.

[2] = target: T2, PYR1 Y58H K59R V81I F108A S122G (PYR1^MANDI) (Arabidopsis thaliana, UniProt O49686, F108A/F159L/K59R/S122G/V81I/Y58H); assay: Y2H Combinatorial Mutagenesis II (HAB1, X-gal); type: cell-based; conditions: Y58H K59R V81I F108A S122G F150L
T2 construct: expressed in transfected cells; host or cells: S. cerevisiae Y190 pACT-HAB1
T2 sequence (O49686 whole entry Y58H/K59R/V81I/F108A/S122G/F159L): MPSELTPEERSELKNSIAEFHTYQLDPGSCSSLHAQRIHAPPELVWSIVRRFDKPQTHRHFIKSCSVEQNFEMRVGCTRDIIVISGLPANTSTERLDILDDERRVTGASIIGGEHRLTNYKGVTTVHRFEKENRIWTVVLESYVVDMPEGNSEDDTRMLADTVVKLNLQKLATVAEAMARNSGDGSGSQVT
T2 sequence (Q9CAJ0 23-511 partner): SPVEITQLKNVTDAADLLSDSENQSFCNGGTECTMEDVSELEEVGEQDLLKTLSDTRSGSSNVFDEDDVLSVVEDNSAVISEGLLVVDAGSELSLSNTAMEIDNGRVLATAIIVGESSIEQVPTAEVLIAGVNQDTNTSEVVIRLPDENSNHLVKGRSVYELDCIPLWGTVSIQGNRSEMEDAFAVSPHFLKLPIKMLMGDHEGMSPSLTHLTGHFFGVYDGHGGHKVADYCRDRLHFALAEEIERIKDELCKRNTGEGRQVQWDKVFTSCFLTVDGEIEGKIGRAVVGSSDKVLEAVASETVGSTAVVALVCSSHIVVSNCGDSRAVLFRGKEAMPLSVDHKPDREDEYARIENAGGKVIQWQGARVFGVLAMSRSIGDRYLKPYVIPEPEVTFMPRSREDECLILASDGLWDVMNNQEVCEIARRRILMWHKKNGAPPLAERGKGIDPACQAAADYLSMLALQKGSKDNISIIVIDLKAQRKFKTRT
Source text: as §1

[3] = target: T3, PYR1 Y58H K59R V81I F108A S122G V164I (Arabidopsis thaliana, UniProt O49686, F108A/K59R/S122G/V164I/V81I/Y58H); assay: Y2H Combinatorial Mutagenesis II (HAB1, X-gal); type: cell-based
T3 construct: expressed in transfected cells; host or cells: S. cerevisiae Y190 pACT-HAB1
T3 sequence (O49686 whole entry Y58H/K59R/V81I/F108A/S122G/V164I): as the sequence (O49686 whole entry Y58H/K59R/V81I/F108A/S122G/F159L) above, with L159F, V164I counted along it
T3 sequence (Q9CAJ0 23-511 partner): as the sequence (Q9CAJ0 23-511 partner) above
Source text: as §1

[4] = target: T4, PYR1 Y58H K59R V83L F108A S122G (Arabidopsis thaliana, UniProt O49686, F108A/K59R/S122G/V83L/Y58H); assay: Y2H Combinatorial Mutagenesis II (HAB1, X-gal); type: cell-based
T4 construct: expressed in transfected cells; host or cells: S. cerevisiae Y190 pACT-HAB1
T4 sequence (O49686 whole entry Y58H/K59R/V83L/F108A/S122G): as the sequence (O49686 whole entry Y58H/K59R/V81I/F108A/S122G/F159L) above, with I81V, V83L, L159F counted along it
T4 sequence (Q9CAJ0 23-511 partner): as the sequence (Q9CAJ0 23-511 partner) above
Source text: as §1

[5] = target: T5, GST-ABI1 with 6×-His-PYR1^MANDI (Arabidopsis thaliana, UniProt O49686, F108A/F159L/K59R/S122G/V81I/Y58H); assay: PP2C enzyme inhibition assay (4-methylumbelliferyl-phosphate); type: biochemical; conditions: 100 nM 6×-His-PYR1^MANDI, 50 nM GST-PP2C; read-out: IC50, mandipropamid mediated inhibition of ABI1
T5 construct: made in house; host or cells: E. coli BL21[DE3]pLysS (receptor)
T5 sequence (O49686 whole entry Y58H/K59R/V81I/F108A/S122G/F159L): as the sequence (O49686 whole entry Y58H/K59R/V81I/F108A/S122G/F159L) above
T5 sequence (P49597 whole entry partner): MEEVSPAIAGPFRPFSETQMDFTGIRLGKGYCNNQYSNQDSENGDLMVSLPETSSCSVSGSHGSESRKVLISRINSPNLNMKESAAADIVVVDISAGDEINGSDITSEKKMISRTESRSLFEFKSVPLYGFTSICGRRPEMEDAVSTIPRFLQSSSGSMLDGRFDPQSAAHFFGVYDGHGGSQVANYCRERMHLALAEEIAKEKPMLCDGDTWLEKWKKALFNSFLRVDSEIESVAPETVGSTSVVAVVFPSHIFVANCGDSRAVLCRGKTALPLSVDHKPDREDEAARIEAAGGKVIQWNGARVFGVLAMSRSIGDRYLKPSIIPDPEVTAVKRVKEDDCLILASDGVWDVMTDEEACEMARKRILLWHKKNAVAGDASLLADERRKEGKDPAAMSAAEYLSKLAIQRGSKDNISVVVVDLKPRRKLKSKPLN
Experimental: (§2) We next characterized the effects of recombinant PYR1^MANDI on PP2C activity using the fluorogenic substrate 4-methylumbelliferyl-phosphate. Recombinant receptor and PP2C proteins were prepared as described above and used to examine PP2C inactivation in response to mandipropamid or ABA. Enzyme inhibition assays were conducted using the following assay conditions: 100 nM 6×-His-PYR1^MANDI, 50 nM GST-PP2C, 100 mM Tris-OAc (pH 7.9), 100 mM NaCl, 1 mM MnCl2, 1% β-mercaptoethanol. […] The three ABA-regulated clade A PP2Cs, GST-HAB1, GST-ABI1 and GST-ABI2 were each tested under the same enzyme conditions in separate reactions. The assays were conducted at a variety of mandipropamid or ABA concentrations so that IC50 values could be determined. […] Thus, the PYR1^MANDI receptor is highly sensitive to activation by mandipropamid and interacts with multiple clade A PP2Cs in response to mandipropamid. This high level of sensitivity is consistent with the yeast two hybrid results described above in which a detectable interaction between PYR1^MANDI and HAB1 could be observed at concentrations as low as 2 nM (see Table 1). We note that the yeast two hybrid reporter systems requires only a small percentage of PYR1^MANDI receptors to bind HAB1 for an interaction signal and is therefore a potentially more sensitive indicator than in vitro assays. […] Thus these in vitro assays confirm that PYR1^MANDI is selectively activated by mandipropamid.

[6] = target: T6, GST-ABI2 with 6×-His-PYR1^MANDI (Arabidopsis thaliana, UniProt O49686, F108A/F159L/K59R/S122G/V81I/Y58H); assay: as above; type: biochemical; conditions: 100 nM 6×-His-PYR1^MANDI, 50 nM GST-PP2C; read-out: IC50, mandipropamid mediated inhibition of ABI2
T6 construct: made in house; host or cells: E. coli BL21[DE3]pLysS (receptor)
T6 sequence (O49686 whole entry Y58H/K59R/V81I/F108A/S122G/F159L): as the sequence (O49686 whole entry Y58H/K59R/V81I/F108A/S122G/F159L) above
T6 sequence (O04719 whole entry partner): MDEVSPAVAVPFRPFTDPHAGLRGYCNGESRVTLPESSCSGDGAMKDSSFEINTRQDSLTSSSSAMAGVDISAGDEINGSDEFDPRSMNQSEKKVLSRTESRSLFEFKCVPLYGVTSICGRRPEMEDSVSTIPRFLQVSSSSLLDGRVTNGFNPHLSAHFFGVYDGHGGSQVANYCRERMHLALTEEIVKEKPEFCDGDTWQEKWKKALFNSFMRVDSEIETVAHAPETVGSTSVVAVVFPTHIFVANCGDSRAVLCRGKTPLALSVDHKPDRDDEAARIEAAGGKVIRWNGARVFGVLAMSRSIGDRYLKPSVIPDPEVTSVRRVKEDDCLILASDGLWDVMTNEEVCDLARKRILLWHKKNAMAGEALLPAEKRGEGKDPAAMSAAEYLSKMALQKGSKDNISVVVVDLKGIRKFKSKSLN
Experimental: as §2

[7] = target: T7, GST-HAB1 with 6×-His-PYR1^MANDI (Arabidopsis thaliana, UniProt O49686, F108A/F159L/K59R/S122G/V81I/Y58H); assay: as above; type: biochemical; conditions: 100 nM 6×-His-PYR1^MANDI, 50 nM GST-PP2C; read-out: IC50, mandipropamid mediated inhibition of HAB1
T7 construct: made in house; host or cells: E. coli BL21[DE3]pLysS (receptor)
T7 sequence (Q9CAJ0 23-511): as the sequence (Q9CAJ0 23-511 partner) above
T7 sequence (O49686 whole entry Y58H/K59R/V81I/F108A/S122G/F159L): as the sequence (O49686 whole entry Y58H/K59R/V81I/F108A/S122G/F159L) above
Experimental: as §2

[8] = tested on: 35S::PYR1^MANDI transgenic seeds; assay: seed germination on mandipropamid medium; type: in vivo, Arabidopsis; conditions: 1 μM mandipropamid
Source text: We generated a series of transgenic plants expressing PYR1^MANDI under the control of either the cauliflower mosaic virus 35S or Arabidopsis Rubisco small subunit 3B promoters (RBCS). These were generated for the purpose of examining the physiological efficacy of the PYR1^MANDI-mandipropamid system for regulating ABA responses in planta. The PYR1^MANDI coding sequence was PCR amplified from pBD-PYR1^MANDI template and cloned into the plant transformation vector pEGAD under control of the 35S promoter. For the RBCS driven construct, the 35S promoter in pEGAD was replaced with the RBCS promoter, which was amplified from Arabidopsis genomic DNA by PCR; the pEGAD vector contains a glufosinate resistance gene and allows selection of transgenics in soil using commercially available formulations of glufosinate. These two constructs, p35S::PYR1^MANDI and pRBCS::PYR1^MANDI, were introduced into Agrobacterium tumefacians GV3101 and then used to transform Arabidopsis using the floral dip method (Clough and Bent, 1998) and the resultant seed germinated in soil and treated with glufosinate to identify transformed plants. Seed from approximately 15-16 transgenic plants were harvested individually and then characterized. It is well known that ABA inhibits seed germination. […]

T1 sequence (O49686 whole entry K59R/V81I/F108A/S122G/A160V): as the sequence (O49686 whole entry Y58H/K59R/V81I/F108A/S122G/F159L) above, with H58Y, L159F, A160V counted along it
T1 sequence (Q9CAJ0 23-511 partner): as the sequence (Q9CAJ0 23-511 partner) above

For `C#CCOc1ccc(CCNC(=O)C(OCC#C)c2ccc(Cl)cc2)cc1OC` (centres unmarked) [Mandipropamid, mandipropamid], the Threshold [1] was 0.05 µM, the Threshold [2] was 0.002 µM and the Threshold [3] was 0.01 µM. It also gave a Threshold [4] of 0.01 µM, an IC50 [5] of 26.8 nM and an IC50 [6] of 75.5 nM. The IC50 [7] was 32.2 nM and the “transgenic plants whose germination was inhibited by mandipropamid” value [8] was 5 of the 15.
